Measured values as given in ChEMBL document CHEMBL4602696, “LMP2 Inhibitors as a Potential Treatment for Alzheimer's Disease” (J Med Chem, 2020).
Active and inactive are the calls of the source. The calls are words filed in the database; no cut-off is given here.

Legend:
[1] = Inhibition of LMP7/Beta 5 subunit chymotrypsin-like activity in human RPM18226 cell lysates using Suc-LLVY-AMC as substrate after 1 hr by fluorescence based microplate reader analysis; format: cell-free; conditions: rpmi-8226
[2] = target: T1, Proteasome subunit beta type-9 (Homo sapiens, UniProt P28065); assay: Inhibition of LMP2 in human 20S immunoproteasome using Ac-PAL-AMC as substrate after 1 hr by fluorescence based microplate reader analysis
T1 sequence (P28065 whole entry): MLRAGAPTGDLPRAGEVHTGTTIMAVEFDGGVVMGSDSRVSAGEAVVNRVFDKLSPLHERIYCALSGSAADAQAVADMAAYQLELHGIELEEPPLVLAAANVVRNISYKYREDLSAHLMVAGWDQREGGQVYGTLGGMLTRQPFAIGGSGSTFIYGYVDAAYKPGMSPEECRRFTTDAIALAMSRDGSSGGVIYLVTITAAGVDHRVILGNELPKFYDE

[3] = target: T2, Proteasome subunit beta type-9 (Homo sapiens) (UniProt P28065); assay: Inhibition of LMP2 subunit in human DLD1 cells over expressing ABCB1 at 1 uM using Ac-PAL-AMC as substrate incubated for 4 hrs; format: cell-based; conditions: DLD-1
T2 sequence (whole entry): T1 sequence (P28065 whole entry)

[4] = target: T2, Proteasome subunit beta type-9 (Homo sapiens); assay: Inhibition of immunoproteasome LMP2 subunit in human DLD1 cells over expressing ABCB1 at 3 uM using Ac-PAL-AMC as substrate incubated for 4 hrs in presence of reversin-121; format: cell-based; conditions: DLD-1
[5] = target: T3, Proteasome subunit beta type-8 (Homo sapiens, UniProt P28062); assay: Inhibition of LMP7 in human 20S immunoproteasome using Ac-ANW-AMC as substrate after 1 hr by fluorescence based microplate reader analysis
T3 sequence (P28062 whole entry): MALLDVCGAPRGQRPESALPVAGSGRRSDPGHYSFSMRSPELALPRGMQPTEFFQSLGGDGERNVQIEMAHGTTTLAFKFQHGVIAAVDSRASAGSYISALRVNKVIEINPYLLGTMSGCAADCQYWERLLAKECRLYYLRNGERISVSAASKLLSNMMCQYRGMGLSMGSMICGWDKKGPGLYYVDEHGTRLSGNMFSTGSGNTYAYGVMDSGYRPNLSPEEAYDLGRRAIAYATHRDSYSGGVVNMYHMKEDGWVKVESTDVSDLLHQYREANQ

[6] = target: T4, Proteasome Macropain subunit MB1 (Homo sapiens, UniProt P28074); assay: Inhibition of Beta5 in human 20S […] usingAc-WLA-AMC as substrate after 1 hr by fluorescence based microplate reader analysis
T4 sequence (P28074 whole entry): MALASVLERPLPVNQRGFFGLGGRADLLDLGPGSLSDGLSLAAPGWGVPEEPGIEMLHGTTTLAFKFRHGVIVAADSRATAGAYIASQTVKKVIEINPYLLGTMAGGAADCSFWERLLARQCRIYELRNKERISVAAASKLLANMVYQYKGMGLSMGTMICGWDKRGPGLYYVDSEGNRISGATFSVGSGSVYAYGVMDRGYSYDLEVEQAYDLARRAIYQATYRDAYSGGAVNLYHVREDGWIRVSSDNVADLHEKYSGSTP

Compound | IC50 [1] [µM] | IC50 [2] [nM] | inhibition [3] | IC50 [5] [µM] | IC50 [6] [µM] | inhibition [4]
C[C@]1(C(=O)[C@H](Cc2ccccc2)NC(=O)[C@H](CO)NC(=O)c2cccc(=O)[nH]2)CO1 | > 10 | 158 to 162 | inactive | > 10 | > 10 | Active
CC(=O)NCC(=O)N1CCC[C@H]1C(=O)N[C@@H](Cc1ccc(NC(=O)c2ccccc2)cc1)C(=O)N[C@@H](CC(C)C)C(=O)[C@@]1(C)CO1 | 5.08 | 72 |  |  |  | 
CC(=O)NCC(=O)N1C[C@H](F)C[C@H]1C(=O)N[C@@H](Cc1ccccc1)C(=O)N[C@@H](CC(C)C)C(=O)[C@@]1(C)CO1 | > 10 | 151 |  |  |  | 
Cc1ncc(C(=O)NCC(=O)N2CCC[C@H]2C(=O)N[C@@H](CCc2ccccc2)C(=O)N[C@@H](CC(C)C)C(=O)[C@@]2(C)CO2)s1 | > 10 | 103 |  |  |  | 
Cc1ncc(C(=O)NCC(=O)N2CCC[C@H]2C(=O)N[C@@H](Cc2ccc3ccccc3c2)C(=O)N[C@@H](CC(C)C)C(=O)[C@@]2(C)CO2)s1 | > 10 | 183 |  |  |  | 
CC(=O)NCC(=O)N1CCC[C@@]1(C)C(=O)N[C@@H](Cc1ccccc1)C(=O)N[C@@H](CC(C)C)C(=O)[C@@]1(C)CO1 | > 10 | 152 |  |  |  | 
Cc1ncc(C(=O)NCC(=O)N2CCC[C@H]2C(=O)N[C@@H](Cc2ccccc2)C(=O)N[C@@H](CC(C)C)C(=O)[C@@]2(C)CO2)s1 | > 10 | 106 |  |  |  | 
CC(=O)NCC(=O)N1CCC[C@H]1C(=O)N[C@@H](Cc1ccc2ccccc2c1)C(=O)N[C@@H](CC(C)C)C(=O)[C@@]1(C)CO1 | > 10 | 33.5 |  |  |  | 
CC(C)C[C@H](NC(=O)[C@H](Cc1ccccc1)NC(=O)[C@@H]1CCCN1C(=O)CN1CCOCC1=O)C(=O)[C@@]1(C)CO1 | > 10 | 1040 |  |  |  | 
CC(=O)NCC(=O)N1CCC[C@H]1C(=O)N[C@@H](CO)C(=O)N[C@@H](CC(C)C)C(=O)[C@@]1(C)CO1 | > 10 | 120 |  |  |  | 
CC(=O)NCC(=O)N1CCC[C@H]1C(=O)N[C@@H](Cc1ccccc1)C(=O)N[C@@H](CC(C)C)C(=O)[C@]1(C)CO1 |  |  |  | > 10 | > 10 | 
CC(=O)NCC(=O)N1CCC[C@H]1C(=O)N[C@@H](Cc1ccc(NC(=O)c2cnccn2)cc1)C(=O)N[C@@H](CC(C)C)C(=O)[C@@]1(C)CO1 | > 10 | 33.2 |  |  |  | 
CCc1ccc(C[C@H](NC(=O)[C@@H]2CCCN2C(=O)CNC(C)=O)C(=O)N[C@@H](CC(C)C)C(=O)[C@@]2(C)CO2)cc1 | > 10 | 134 |  |  |  | 
CC(C)C[C@H](NC(=O)[C@H](Cc1ccc(-c2ccccc2)cc1)NC(=O)[C@@H]1CCCN1C(=O)CNC(=O)c1cnccn1)C(=O)[C@@]1(C)CO1 | 10 | 62.8 |  |  |  | 
CC(C)C[C@H](NC(=O)[C@H](Cc1ccccc1)NC(=O)[C@@H]1CCCN1C(=O)CNC(=O)c1cccc(O)n1)C(=O)[C@@]1(C)CO1 | > 10 | 143 |  |  |  | 
CC(C)C[C@H](NC(=O)[C@H](Cc1ccc2ccccc2c1)NC(=O)[C@@H]1CCCN1C(=O)CNC(=O)c1cnccn1)C(=O)[C@@]1(C)CO1 | 5.76 | 90.1 |  |  |  | 
CC(=O)NCC(=O)N1CCC[C@H]1C(=O)N[C@@H](Cc1cccc2ccccc12)C(=O)N[C@@H](CC(C)C)C(=O)[C@@]1(C)CO1 | > 10 | 29.7 |  |  |  | 
Cc1cc(C(=O)NCC(=O)N2CCC[C@H]2C(=O)N[C@@H](CCc2ccccc2)C(=O)N[C@@H](CC(C)C)C(=O)[C@@]2(C)CO2)no1 | 10 | 132 |  |  |  | 
CC(=O)NCC(=O)N1CC(=O)C[C@H]1C(=O)N[C@@H](Cc1ccccc1)C(=O)N[C@@H](CC(C)C)C(=O)[C@@]1(C)CO1 | > 10 | 622 |  |  |  | 
COc1cnc(C(=O)NCC(=O)N2CCC[C@H]2C(=O)N[C@@H](Cc2ccccc2)C(=O)N[C@@H](CC(C)C)C(=O)[C@@]2(C)CO2)cn1 | > 10 | 111 |  |  |  | 

The next lines start with results.

IC50 [1] [µM] | IC50 [2] [nM] | inhibition [3] | IC50 [5] [µM] | IC50 [6] [µM] | Compound | inhibition [4]
> 10 | 100 |  |  |  | CC(=O)NCC(=O)N1CC[C@H]1C(=O)N[C@@H](Cc1ccccc1)C(=O)N[C@@H](CC(C)C)C(=O)[C@@]1(C)CO1 | 
> 10 | 90.9 |  |  |  | CC(=O)NCC(=O)N1CCC[C@H]1C(=O)N[C@@H](Cc1ccc(NC(=O)CN2CCOCC2)cc1)C(=O)N[C@@H](CC(C)C)C(=O)[C@@]1(C)CO1 | 
10 | 115 | Active |  |  | Cc1ncc(C(=O)NCC(=O)N2CCC[C@H]2C(=O)N[C@@H](Cc2ccc(-c3ccccc3)cc2)C(=O)N[C@@H](CC(C)C)C(=O)[C@@]2(C)CO2)s1 | 
> 10 | 1220 |  |  |  | CC(C)C[C@H](NC(=O)[C@H](Cc1ccccc1)NC(=O)[C@@H]1CCCN1C(=O)CN1CCOCC1)C(=O)[C@@]1(C)CO1 | 
10 | 122 |  |  |  | CC(=O)NCC(=O)N1CCC[C@H]1C(=O)N[C@@H](Cc1ccncc1)C(=O)N[C@@H](CC(C)C)C(=O)[C@@]1(C)CO1 | 
> 10 | 58 |  |  |  | CC(=O)NCC(=O)N1CCC[C@H]1C(=O)N[C@@H](CCc1ccccc1)C(=O)N[C@@H](CC(C)C)C(=O)[C@@]1(C)CO1 | 
1.31 | 123 |  |  |  | CC(=O)NCC(=O)N1CCCC[C@H]1C(=O)N[C@@H](Cc1ccccc1)C(=O)N[C@@H](CC(C)C)C(=O)[C@@]1(C)CO1 | 
> 10 | 201 |  |  |  | CC(=O)NCC(=O)N1CCC[C@H]1C(=O)N[C@@H](Cc1ccccc1)C(=O)N[C@@H](CC1CCCCC1)C(=O)[C@@]1(C)CO1 | 
> 10 | 1010 |  |  |  | CC(C)C[C@H](NC(=O)[C@H](Cc1ccccc1)NC(=O)[C@@H]1CCCN1C(=O)c1cccc(O)n1)C(=O)[C@@]1(C)CO1 | 
> 10 | 120 |  |  |  | CCCC[C@H](NC(=O)[C@@H]1CCCN1C(=O)CNC(C)=O)C(=O)N[C@@H](CC(C)C)C(=O)[C@@]1(C)CO1 | 
5.3 | 21.7 |  |  |  | CC(=O)NCC(=O)N1CCC[C@H]1C(=O)N[C@@H](Cc1ccc(-c2ccccc2)cc1)C(=O)N[C@@H](CC(C)C)C(=O)[C@@]1(C)CO1 | 
> 10 | 342 |  |  |  | CC(=O)NCC(=O)N1CCC[C@H]1C(=O)N[C@@H](Cc1ccccc1)C(=O)N[C@@H](Cc1ccccc1)C(=O)[C@@]1(C)CO1 | 
> 10 | 131 |  |  |  | CC(C)C[C@H](NC(=O)[C@H](Cc1ccccc1)NC(=O)[C@@H]1CCCN1C(=O)CNC(=O)C(F)(F)F)C(=O)[C@@]1(C)CO1 | 
> 10 |  | inactive | > 10 | > 10 | CC(=O)NCC(=O)N1CCC[C@H]1C(=O)N[C@@H](Cc1ccccc1)C(=O)N[C@@H](CC(C)C)C(=O)[C@@]1(C)CO1 | Active
> 10 | 71.8 |  |  |  | CC(=O)NCC(=O)N1CC(F)(F)C[C@H]1C(=O)N[C@@H](Cc1ccccc1)C(=O)N[C@@H](CC(C)C)C(=O)[C@@]1(C)CO1 | 
> 10 | 82 |  |  |  | CC(=O)NCC(=O)N1CCC[C@H]1C(=O)N[C@@H](Cc1ccc(F)cc1)C(=O)N[C@@H](CC(C)C)C(=O)[C@@]1(C)CO1 | 
> 10 | 131 | Active |  |  | CC(C)C[C@H](NC(=O)[C@H](CCc1ccccc1)NC(=O)[C@@H]1CCCN1C(=O)CNC(=O)c1cnccn1)C(=O)[C@@]1(C)CO1 | 
> 10 | 115 |  |  |  | CC(C)C[C@H](NC(=O)[C@H](Cc1ccccc1)NC(=O)[C@@H]1CCCN1C(=O)CNS(C)(=O)=O)C(=O)[C@@]1(C)CO1 | 
> 10 | 121 |  |  |  | CC(=O)NCC(=O)N1CCC[C@H]1C(=O)N[C@@H](Cc1ccc(C(C)(C)C)cc1)C(=O)N[C@@H](CC(C)C)C(=O)[C@@]1(C)CO1 | 
